Data published in US5386019A, “Synthesis of inhibitors of calmodulin-mediated enzymes including KS-501, KS-502 and their enantiomers” (Yale University, priority 1992, dated 1995).

What was measured:
[1] = tested on: Ca++/CaM dependent Kinase II; experiment: Synapsin I phosphorylation at sites 2,3 by Ca++/Calmodulin kinase (Table I A); assay type: biochemical; conditions: for Inhibitory activity against CaM-dependent kinases compared with cAMP-dependent kinase or protein kinase C: from data in Table I
CaM KI = experiment: Synapsin I phosphorylation at site 1 by Ca++/Calmodulin kinase (Table I A); assay type: biochemical
PKC = experiment: Synapsin I phosphorylation by PKC, Ca++/PSD (Table I B); assay type: biochemical
From the text: (§1) KS-501 & ent-KS-501 as Inhibitors of Ca++/Calmodulin PKC PKA
(§2) The results represent the mean of 3 experiments
Therefore in the reaction of CaMK or PKC, PKA inhibitor is included in th
In vitro PKC is able to phosphorylate Synapsin I at all 3 serine sites.

cAMP dependent kinase = experiment: Synapsin I phosphorylation by PKA, cAMP (Table I C); assay type: biochemical
From the text: as §1, §2
Site 1 is phosphorylated by both CaM KI and cAMP dependent kinase.
reaction mix. And in the reaction of PKA, EGTA is included.

[2] = tested on: Ca2+/CaM-sensitive phosphodiesterase; experiment: Inhibition of Ca2+/CaM-sensitive phosphodiesterase (FIGS. 1-4); assay type: biochemical; conditions: for Inhibitory effects on CaM-mediated enzyme activity: enantiomers compared with KS-501 and KS-502
From the text: FIG. 1 is a graph showing the effect of various concentrations of KS-501 on the activity of Ca^2+ /CaM-dependent phosphodiesterase.
FIG. 2 is a graph showing the effect of various concentrations of ent-KS-501 on the activity of Ca^2+ /CaM-dependent phosphodiesterase.
FIG. 3 is a graph showing the effect of various concentrations of KS-502 on the activity of Ca^2+ /CaM-dependent phosphodiesterase.
FIG. 4 is a graph showing the effect of various concentrations of ent-KS-502 on the activity of Ca^2+ /CaM-dependent phosphodiesterase.

CaM-PDE = conditions: background, cited from earlier work; for Concentration range inhibiting CaM-dependent activities of CaM-PDE: Nakanishi et al.
protein kinase C = conditions: background; cited from earlier work
[3] = Basal, compound 10 μM, basal control 0.016, mean of 3 experiments
[4] = Basal, compound 40 μM, basal control 0.016
[5] = Ca++/CaM, compound 10 μM, Ca++ CaM 3 μg control 0.125
[6] = Ca++/CaM, compound 40 μM, Ca++ CaM 3 μg control 0.125
[7] = Basal, compound 10 μM, basal control 0.022
[8] = Basal, compound 40 μM, basal control 0.022
[9] = Ca++/CaM, compound 10 μM, Ca++ CaM 3 μg control 0.049
[10] = Ca++/CaM, compound 40 μM, Ca++ CaM 3 μg control 0.049
[11] = Basal, compound 10 μM, basal control 0.016
[12] = Basal, compound 10 μM, basal control 0.018
[13] = Basal, compound 40 μM, basal control 0.018
[14] = Ca++/PSD, compound 10 μM, Ca++ PSD control 0.045
[15] = Ca++/PSD, compound 10 μM, Ca++ PSD control 0.079
[16] = Ca++/PSD, compound 40 μM, Ca++ PSD control 0.045
[17] = Ca++/PSD, compound 40 μM, Ca++ PSD control 0.079
[18] = Basal, compound 10 μM, basal control 0.007
[19] = Basal, compound 10 μM, basal control 0.028
[20] = Basal, compound 40 μM, basal control 0.007
[21] = Basal, compound 40 μM, basal control 0.028
[22] = cAMP, compound 10 μM, cAMP 1 μM control 0.008
[23] = cAMP, compound 10 μM, cAMP 1 μM control 0.041
[24] = cAMP, compound 40 μM, cAMP 1 μM control 0.008
[25] = cAMP, compound 40 μM, cAMP 1 μM control 0.041

With `CCCCCCCc1cc(O)cc(OC(=O)c2c(CCCCCCC)cc(O)cc2O[C@H]2O[C@H]([C@@H](O)CO)[C@@H](O)[C@@H]2O)c1` [ent-KS-501] the “Concentration range inhibitory of CaM-sensitive Kinase II” value [1] was 10 to 40 µM, the “Phosphorylation of Synapsin I site 2,3” value [1, 3] was 0.018 pmole/mg protein/min and the “Phosphorylation of Synapsin I site 2,3” value [1, 4] was 0.018 pmole/mg protein/min. For the same compound, the “Phosphorylation of Synapsin I site 2,3” value [1, 5] was 0.076 pmole/mg protein/min, the “Phosphorylation of Synapsin I site 2,3” value [1, 6] was 0.021 pmole/mg protein/min and the “Inhibitory activity against CaM-dependent kinases compared with cAMP-dependent kinase or protein kinase C” value [1] was “more inhibitory activity against CaM-dependent kinases than against cAMP-dependent kinase or protein kinase C”. The “Phosphorylation of Synapsin I site 1” value (CaM KI; [7]) was 0.023 pmole/mg protein/min, the “Phosphorylation of Synapsin I site 1” value (CaM KI; [8]) was 0.019 pmole/mg protein/min and the “Phosphorylation of Synapsin I site 1” value (CaM KI; [9]) was 0.043 pmole/mg protein/min. For the same compound, the “Phosphorylation of Synapsin I site 1” value (CaM KI; [10]) was 0.012 pmole/mg protein/min, the “Phosphorylation of Synapsin I site 2,3” value (PKC; [11]) was 0.015 pmole/mg protein/min and the “Phosphorylation of Synapsin I site 1” value (PKC; [12]) was 0.018 pmole/mg protein/min. The “Phosphorylation of Synapsin I site 2,3” value (PKC; [4]) was 0.014 pmole/mg protein/min, the “Phosphorylation of Synapsin I site 1” value (PKC; [13]) was 0.013 pmole/mg protein/min and the “Phosphorylation of Synapsin I site 1” value (PKC; [14]) was 0.047 pmole/mg protein/min. For the same compound, the “Phosphorylation of Synapsin I site 2,3” value (PKC; [15]) was 0.067 pmole/mg protein/min, the “Phosphorylation of Synapsin I site 1” value (PKC; [16]) was 0.01 pmole/mg protein/min and the “Phosphorylation of Synapsin I site 2,3” value (PKC; [17]) was 0.02 pmole/mg protein/min. For the same compound, the “Phosphorylation of Synapsin I site 2,3” value (cAMP dependent kinase; [18]) was 0.006 pmole/mg protein/min, the “Phosphorylation of Synapsin I site 1” value (cAMP dependent kinase; [19]) was 0.025 pmole/mg protein/min and the “Phosphorylation of Synapsin I site 2,3” value (cAMP dependent kinase; [20]) was 0.010 pmole/mg protein/min. The “Phosphorylation of Synapsin I site 1” value (cAMP dependent kinase; [21]) was 0.017 pmole/mg protein/min, the “Phosphorylation of Synapsin I site 2,3” value (cAMP dependent kinase; [22]) was 0.009 pmole/mg protein/min and the “Phosphorylation of Synapsin I site 1” value (cAMP dependent kinase; [23]) was 0.049 pmole/mg protein/min. The “Phosphorylation of Synapsin I site 2,3” value (cAMP dependent kinase; [24]) was 0.008 pmole/mg protein/min, the “Phosphorylation of Synapsin I site 1” value (cAMP dependent kinase; [25]) was 0.03 pmole/mg protein/min and the “Concentration range inhibitory of Ca2+/CaM-sensitive phosphodiesterase” value [2] was 1 to 2 µM. The “Inhibitory effects on CaM-mediated enzyme activity” value [2] was “possess inhibitory activity”.
For `CCCCCCCc1cc(OC(=O)c2c(CCCCCCC)cc(O)cc2O[C@H]2O[C@H]([C@@H](O)CO)[C@@H](O)[C@@H]2O)cc(O)c1C(=O)O` [ent-KS-502], the “Concentration range inhibitory of Ca2+/CaM-sensitive phosphodiesterase” value [2] was “approximately 10 μM” and the “Inhibitory effects on CaM-mediated enzyme activity” value [2] was “possess inhibitory activity”.
For `CCCCCCCc1cc(O)cc(OC(=O)c2c(CCCCCCC)cc(O)cc2O[C@@H]2O[C@@H]([C@H](O)CO)[C@H](O)[C@H]2O)c1` [KS-501], the “Concentration range inhibitory of CaM-sensitive Kinase II” value [1] was 10 to 40 µM, the “Phosphorylation of Synapsin I site 2,3” value [1, 3] was 0.017 pmole/mg protein/min and the “Phosphorylation of Synapsin I site 2,3” value [1, 4] was 0.015 pmole/mg protein/min. The “Phosphorylation of Synapsin I site 2,3” value [1, 5] was 0.087 pmole/mg protein/min, the “Phosphorylation of Synapsin I site 2,3” value [1, 6] was 0.012 pmole/mg protein/min and the “Inhibitory activity against CaM-dependent kinases compared with cAMP-dependent kinase or protein kinase C” value [1] was “more inhibitory activity against CaM-dependent kinases than against cAMP-dependent kinase or protein kinase C”. For the same compound, the “Phosphorylation of Synapsin I site 1” value (CaM KI; [7]) was 0.025 pmole/mg protein/min, the “Phosphorylation of Synapsin I site 1” value (CaM KI; [8]) was 0.017 pmole/mg protein/min and the “Phosphorylation of Synapsin I site 1” value (CaM KI; [9]) was 0.054 pmole/mg protein/min. The “Phosphorylation of Synapsin I site 1” value (CaM KI; [10]) was 0.011 pmole/mg protein/min, the “Phosphorylation of Synapsin I site 2,3” value (PKC; [11]) was 0.015 pmole/mg protein/min and the “Phosphorylation of Synapsin I site 1” value (PKC; [12]) was 0.020 pmole/mg protein/min. The “Phosphorylation of Synapsin I site 2,3” value (PKC; [4]) was 0.015 pmole/mg protein/min, the “Phosphorylation of Synapsin I site 1” value (PKC; [13]) was 0.016 pmole/mg protein/min and the “Phosphorylation of Synapsin I site 1” value (PKC; [14]) was 0.041 pmole/mg protein/min. The “Phosphorylation of Synapsin I site 2,3” value (PKC; [15]) was 0.061 pmole/mg protein/min, the “Phosphorylation of Synapsin I site 1” value (PKC; [16]) was 0.017 pmole/mg protein/min and the “Phosphorylation of Synapsin I site 2,3” value (PKC; [17]) was 0.030 pmole/mg protein/min. The “Phosphorylation of Synapsin I site 2,3” value (cAMP dependent kinase; [18]) was 0.008 pmole/mg protein/min, the “Phosphorylation of Synapsin I site 1” value (cAMP dependent kinase; [19]) was 0.033 pmole/mg protein/min and the “Phosphorylation of Synapsin I site 2,3” value (cAMP dependent kinase; [20]) was 0.007 pmole/mg protein/min. For the same compound, the “Phosphorylation of Synapsin I site 1” value (cAMP dependent kinase; [21]) was 0.015 pmole/mg protein/min, the “Phosphorylation of Synapsin I site 2,3” value (cAMP dependent kinase; [22]) was 0.008 pmole/mg protein/min and the “Phosphorylation of Synapsin I site 1” value (cAMP dependent kinase; [23]) was 0.049 pmole/mg protein/min. For the same compound, the “Phosphorylation of Synapsin I site 2,3” value (cAMP dependent kinase; [24]) was 0.009 pmole/mg protein/min, the “Phosphorylation of Synapsin I site 1” value (cAMP dependent kinase; [25]) was 0.025 pmole/mg protein/min and the “Concentration range inhibitory of Ca2+/CaM-sensitive phosphodiesterase” value [2] was 1 to 2 µM. For the same compound, the “Concentration range inhibiting CaM-dependent activities of CaM-PDE” value (CaM-PDE) was 1 to 5 µM, the “Concentrations required to inhibit CaM-independent activities” value (CaM-PDE) was “Much higher concentrations” and the “Effect on protein kinase C” value (protein kinase C) was “no effect”.
In the case of `CCCCCCCc1cc(OC(=O)c2c(CCCCCCC)cc(O)cc2O[C@@H]2O[C@@H]([C@H](O)CO)[C@H](O)[C@H]2O)cc(O)c1C(=O)O` [KS-502], the “Concentration range inhibitory of Ca2+/CaM-sensitive phosphodiesterase” value [2] is given as “approximately 10 μM”, the “Concentration range inhibiting CaM-dependent activities of CaM-PDE” value (CaM-PDE) is given as 1 to 5 µM and the “Concentrations required to inhibit CaM-independent activities” value (CaM-PDE) is given as “Much higher concentrations”. The “Effect on protein kinase C” value (protein kinase C) was “no effect”.
